Source: patent US20040109845A1, “Method for inhibiting articular cartilage matrix calcification” (priority 2001, published 2004)

How the values were obtained:
[1] = tested on: meniscal cells and TC28 cells; assay: Matrix calcification, quantitative Alizarin Red S binding assay; format: cell-based, human; conditions: polyHEME culture up to 10 days; cytokines 10 ng/ml or TGase transfection
Method: TC28 cells and meniscal cells were transfected with empty plasmid or a TGase expression construct, and then transferred to polyHEME and cultured for up to 10 days, as described above. For comparison purposes, control untransfected cells were treated with IL-1 or TGFβ(10 ng/ml each) for up to 10 days. To measure matrix calcification, media and cells were removed from the PolyHEME-coated dishes, and 1 ml Alizarin Red S solution (0.5% v/v Alizarin Red S, pH 5.0) added to washed plates at 23° C. for 10 min. After further washing, 100 mM Cetylpyridium Chloride was added for 10 min to release the remaining calcium-bound Alizarin Red S. The solution was collected and read at OD570, with 1.0 OD570=1 unit of Alizarin Red released per μg of DNA per culture dish. n=6 each, studied in triplicate, and using 6 different knee meniscal donors. *p<0.05.
To promote matrix calcification in short-term cultures, we modified a nonadherent chondrocyte culture system (37), and assessed cells that formed calcifying nodules over 10 days in culture. In brief, meniscal and TC28 cells, at 24 hours after the transfection, were washed and removed from the dish using 0.2 mg/ml EDTA, pH 8.0, then transferred to 6 well plates that had been previously coated with a 10% (wt./v) in 95% ethanol solution of Poly (2-Hydroxyethyl methacrylate) (polyHEME). […]
To assay calcification of the pericellular matrix of meniscal cells and TC28 cells, we used a quantitative Alizarin Red S binding assay (38). […] The solution was collected and read at OD570 on a SpectraMAX microplate reader (Molecular Devices, Sunnyvale, Calif.), with 1 OD570=1 unit of Alizarin Red released per μg of DNA per culture dish. We extracted matrix crystals from plates under each condition using a papain-hypochlorite method (39), and the crystals were embedded in Spurr epoxy resin, sectioned, and viewed on a Philips EM340 transmission electron micrograph and analyzed by electron diffraction (40,41).

[2] = tested on: S100A11 mRNA in human articular chondrocytes; assay: S100A11 mRNA expression by RT-PCR; format: cell-based; conditions: 10 ng/ml, 24 hours, relative to L30
Method: Normal human knee articular chondrocytes were treated in culture with IL-1 or IGF-I (10 ng/ml) for 24 hours and ascertained for S100A11 mRNA expression by RT-PCR, relative to the loading control L30, a ribosomal housekeeping gene. Results for induction of S100 A11 representative of 3 separate experiments with different donors.

IL-1β: Human recombinant IL-1β purchased from R&D Systems
Matrix calcification (bound Alizarin Red S) [1]: significantly increased matrix calcification
S100A11 mRNA expression [2]: induce mRNA expression of S100A11
